ChEMBL document CHEMBL3885881, “DrugMatrix”

Species on record: Rattus norvegicus
Assay: DrugMatrix - Regimen: Daily Repeat
Format: toxicity, organism-based, Sprague-Dawley
Design: regimen Daily Repeat, gender Male, age 6-8 weeks
Details: in vivo, po, route oral GAVAGE, vehicle .5 % CMC; for ABSOLUTE BASOPHIL / ABSOLUTE EOSINOPHIL / ABSOLUTE MONOCYTE / ABSOLUTE SEGMENTED NEUTROPHIL / BASOPHIL / EOSINOPHIL / ERYTHROCYTE COUNT / HEMATOCRIT / HEMOGLOBIN / LEUKOCYTE COUNT / LYMPHOCYTE / MEAN CORPUSCULAR HEMOGLOBIN / MEAN CORPUSCULAR HEMOGLOBIN CONCENTRATION / MEAN CORPUSCULAR VOLUME / MONOCYTE / NEUTROPHIL / NUCLEATED RED BLOOD CELLS / PLATELET COUNT: tissue Blood; for ALANINE AMINOTRANSFERASE / ALBUMIN / ALKALINE PHOSPHATASE / ASPARTATE AMINOTRANSFERASE / BLOOD UREA NITROGEN / CARBON DIOXIDE / CHLORIDE / CHOLESTEROL / CREATINE PHOSPHOKINASE / CREATININE / GLUCOSE / LACTATE DEHYDROGENASE / LIPASE / PHOSPHORUS / POTASSIUM / SODIUM / TOTAL BILIRUBIN / TOTAL PROTEIN / URIC ACID: tissue Plasma
[1] = 0 mg/kg, 72 h, dose level Control, time 3 day
[2] = 0 mg/kg, 120 h, dose level Control, time 5 day
[3] = […], 72 h, dose 6.5 mg/Kg, dose level Low, time 3 day
[4] = […], 120 h, dose 6.5 mg/Kg, dose level Low, time 5 day

With CN(C)CCOC(c1ccccc1)c1ccccc1.Cn1c(=O)c2[nH]c(Cl)nc2n(C)c1=O [DIMENHYDRINATE] the “ABSOLUTE BASOPHIL” value [1] was 0 CELLS/uL, the “ABSOLUTE EOSINOPHIL” value [1] was 32.5 CELLS/uL and the “ABSOLUTE MONOCYTE” value [1] was 474 CELLS/uL. The “ABSOLUTE SEGMENTED NEUTROPHIL” value [1] was 1932.67 CELLS/uL, the BASOPHIL [1] was 0% and the EOSINOPHIL [1] was 0.17%. For the same compound, the “ERYTHROCYTE COUNT” value [1] was 5.45 x10E6/uL, the HEMATOCRIT [1] was 34.32% and the HEMOGLOBIN [1] was 13.82 G/DL. For the same compound, the “LEUKOCYTE COUNT” value [1] was 15.93 x10E3/uL, the LYMPHOCYTE [1] was 84.83% and the “MEAN CORPUSCULAR HEMOGLOBIN” value [1] was 25.38 pg. For the same compound, the “MEAN CORPUSCULAR HEMOGLOBIN CONCENTRATION” value [1] was 40.27 G/DL, the “MEAN CORPUSCULAR VOLUME” value [1] was 63.05 fL and the MONOCYTE [1] was 3%. The NEUTROPHIL [1] was 12%, the “NUCLEATED RED BLOOD CELLS” value [1] was 0.67 /100WBC and the “PLATELET COUNT” value [1] was 1188.5 x10E3/uL. The “ALANINE AMINOTRANSFERASE” value [1] was 54.83 u/L, the ALBUMIN [1] was 4.22 G/DL and the “ALKALINE PHOSPHATASE” value [1] was 427.67 u/L. For the same compound, the “ASPARTATE AMINOTRANSFERASE” value [1] was 86.5 u/L, the “BLOOD UREA NITROGEN” value [1] was 15.33 mg/dL and the “CARBON DIOXIDE” value [1] was 24.83 mmol/L. For the same compound, the CHLORIDE [1] was 102.33 MEQ/L, the CHOLESTEROL [1] was 71.67 mg/dL and the “CREATINE PHOSPHOKINASE” value [1] was 442.5 u/L. For the same compound, the CREATININE [1] was 0.19 mg/dL, the GLUCOSE [1] was 160.67 mg/dL and the “LACTATE DEHYDROGENASE” value [1] was 236.5 u/L. For the same compound, the LIPASE [1] was 9 u/L, the PHOSPHORUS [1] was 11.97 mg/dL and the POTASSIUM [1] was 6.2 MEQ/L. For the same compound, the SODIUM [1] was 142.85 MEQ/L, the “TOTAL BILIRUBIN” value [1] was 0.2 mg/dL and the “TOTAL PROTEIN” value [1] was 5.8 G/DL. The “URIC ACID” value [1] was 1.3 mg/dL, the “ABSOLUTE BASOPHIL” value [2] was 0 CELLS/uL and the “ABSOLUTE EOSINOPHIL” value [2] was 114.5 CELLS/uL. The “ABSOLUTE MONOCYTE” value [2] was 173 CELLS/uL, the “ABSOLUTE SEGMENTED NEUTROPHIL” value [2] was 1048.5 CELLS/uL and the BASOPHIL [2] was 0%. For the same compound, the EOSINOPHIL [2] was 0.67%, the “ERYTHROCYTE COUNT” value [2] was 5.66 x10E6/uL and the HEMATOCRIT [2] was 35.52%. For the same compound, the HEMOGLOBIN [2] was 14.27 G/DL, the “LEUKOCYTE COUNT” value [2] was 15.95 x10E3/uL and the LYMPHOCYTE [2] was 91.33%. The “MEAN CORPUSCULAR HEMOGLOBIN” value [2] was 25.23 pg, the “MEAN CORPUSCULAR HEMOGLOBIN CONCENTRATION” value [2] was 40.2 G/DL and the “MEAN CORPUSCULAR VOLUME” value [2] was 62.7 fL. The MONOCYTE [2] was 1.17%, the NEUTROPHIL [2] was 6.83% and the “NUCLEATED RED BLOOD CELLS” value [2] was 0.33 /100WBC. For the same compound, the “PLATELET COUNT” value [2] was 1229 x10E3/uL, the “ALANINE AMINOTRANSFERASE” value [2] was 58.67 u/L and the ALBUMIN [2] was 4.32 G/DL. The “ALKALINE PHOSPHATASE” value [2] was 382.5 u/L, the “ASPARTATE AMINOTRANSFERASE” value [2] was 81.67 u/L and the “BLOOD UREA NITROGEN” value [2] was 17.67 mg/dL. The “CARBON DIOXIDE” value [2] was 27.17 mmol/L, the CHLORIDE [2] was 102.33 MEQ/L and the CHOLESTEROL [2] was 63.67 mg/dL. For the same compound, the “CREATINE PHOSPHOKINASE” value [2] was 227.67 u/L, the CREATININE [2] was 0.23 mg/dL and the GLUCOSE [2] was 155.33 mg/dL. The “LACTATE DEHYDROGENASE” value [2] was 146.5 u/L, the LIPASE [2] was 10.67 u/L and the PHOSPHORUS [2] was 11.93 mg/dL. The POTASSIUM [2] was 6.85 MEQ/L, the SODIUM [2] was 143.95 MEQ/L and the “TOTAL BILIRUBIN” value [2] was 0.18 mg/dL. The “TOTAL PROTEIN” value [2] was 6.02 G/DL, the “URIC ACID” value [2] was 1.63 mg/dL and the “ABSOLUTE BASOPHIL” value [3] was 0 CELLS/uL. The “ABSOLUTE EOSINOPHIL” value [3] was 46.67 CELLS/uL, the “ABSOLUTE MONOCYTE” value [3] was 474 CELLS/uL and the “ABSOLUTE SEGMENTED NEUTROPHIL” value [3] was 1911.67 CELLS/uL. The BASOPHIL [3] was 0%, the EOSINOPHIL [3] was 0.33% and the “ERYTHROCYTE COUNT” value [3] was 5.67 x10E6/uL. The HEMATOCRIT [3] was 35.5%, the HEMOGLOBIN [3] was 13.93 G/DL and the “LEUKOCYTE COUNT” value [3] was 14.93 x10E3/uL. For the same compound, the LYMPHOCYTE [3] was 84%, the “MEAN CORPUSCULAR HEMOGLOBIN” value [3] was 24.57 pg and the “MEAN CORPUSCULAR HEMOGLOBIN CONCENTRATION” value [3] was 39.27 G/DL. For the same compound, the “MEAN CORPUSCULAR VOLUME” value [3] was 62.6 fL, the MONOCYTE [3] was 3% and the NEUTROPHIL [3] was 12.67%. The “NUCLEATED RED BLOOD CELLS” value [3] was 0 /100WBC, the “PLATELET COUNT” value [3] was 1199.33 x10E3/uL and the “ALANINE AMINOTRANSFERASE” value [3] was 47.67 u/L. For the same compound, the ALBUMIN [3] was 4.03 G/DL, the “ALKALINE PHOSPHATASE” value [3] was 343 u/L and the “ASPARTATE AMINOTRANSFERASE” value [3] was 87 u/L. The “BLOOD UREA NITROGEN” value [3] was 15 mg/dL, the “CARBON DIOXIDE” value [3] was 25.67 mmol/L and the CHLORIDE [3] was 102 MEQ/L. The CHOLESTEROL [3] was 75.33 mg/dL, the “CREATINE PHOSPHOKINASE” value [3] was 266 u/L and the CREATININE [3] was 0.14 mg/dL. The GLUCOSE [3] was 167.33 mg/dL, the “LACTATE DEHYDROGENASE” value [3] was 166 u/L and the LIPASE [3] was 9.33 u/L. It also gave a PHOSPHORUS [3] of 12.2 mg/dL, a POTASSIUM [3] of 6.53 MEQ/L and an SODIUM [3] of 144.67 MEQ/L. For the same compound, the “TOTAL BILIRUBIN” value [3] was 0.2 mg/dL, the “TOTAL PROTEIN” value [3] was 5.6 G/DL and the “URIC ACID” value [3] was 1.57 mg/dL. For the same compound, the “ABSOLUTE BASOPHIL” value [4] was 0 CELLS/uL, the “ABSOLUTE EOSINOPHIL” value [4] was 108.67 CELLS/uL and the “ABSOLUTE MONOCYTE” value [4] was 85.67 CELLS/uL. For the same compound, the “ABSOLUTE SEGMENTED NEUTROPHIL” value [4] was 1586.67 CELLS/uL, the BASOPHIL [4] was 0% and the EOSINOPHIL [4] was 0.67%. The “ERYTHROCYTE COUNT” value [4] was 5.47 x10E6/uL, the HEMATOCRIT [4] was 34.93% and the HEMOGLOBIN [4] was 14.13 G/DL. The “LEUKOCYTE COUNT” value [4] was 19.43 x10E3/uL, the LYMPHOCYTE [4] was 91.67% and the “MEAN CORPUSCULAR HEMOGLOBIN” value [4] was 25.8 pg. The “MEAN CORPUSCULAR HEMOGLOBIN CONCENTRATION” value [4] was 40.47 G/DL, the “MEAN CORPUSCULAR VOLUME” value [4] was 63.8 fL and the MONOCYTE [4] was 0.33%. For the same compound, the NEUTROPHIL [4] was 7.33%, the “NUCLEATED RED BLOOD CELLS” value [4] was 0 /100WBC and the “PLATELET COUNT” value [4] was 1543 x10E3/uL. For the same compound, the “ALANINE AMINOTRANSFERASE” value [4] was 48.67 u/L, the ALBUMIN [4] was 4.17 G/DL and the “ALKALINE PHOSPHATASE” value [4] was 266.33 u/L. The “ASPARTATE AMINOTRANSFERASE” value [4] was 77.33 u/L, the “BLOOD UREA NITROGEN” value [4] was 18.67 mg/dL and the “CARBON DIOXIDE” value [4] was 25 mmol/L. For the same compound, the CHLORIDE [4] was 96 MEQ/L, the CHOLESTEROL [4] was 71.33 mg/dL and the “CREATINE PHOSPHOKINASE” value [4] was 225.67 u/L. For the same compound, the CREATININE [4] was 0.2 mg/dL, the GLUCOSE [4] was 159 mg/dL and the “LACTATE DEHYDROGENASE” value [4] was 96.67 u/L. The LIPASE [4] was 10 u/L, the PHOSPHORUS [4] was 13.07 mg/dL and the POTASSIUM [4] was 6.62 MEQ/L. The SODIUM [4] was 135.4 MEQ/L, the “TOTAL BILIRUBIN” value [4] was 0.13 mg/dL and the “TOTAL PROTEIN” value [4] was 5.8 G/DL. The “URIC ACID” value [4] was 2.27 mg/dL.
